Legend:
[1] = test system: CHIKV; assay: antiviral activity against CHIKV (VTR and EC90); assay type: cell-based; details: Chikungunya virus; for log reduction at 10 µM: read-out: VTR @ 10 μM (logs)
Text: As used herein, “EC90,” is intended to refer to the concentration of a substance (e.g., a compound or a drug) that is required for 90% agonism of a biological process, or component of a process, including a protein, subunit, organelle, ribonucleoprotein, etc. In one aspect, an EC90 can refer to the concentration of a substance that is required for 90% agonism in vivo, as further defined elsewhere herein. In a further aspect, […].

[2] = cell cytotoxicity in a cell viability assay (CC50); assay type: cell-based; details: concentration required for 50% cell survival
Text: As used herein, “CC50,” is intended to refer to the cell cytotoxicity to the concentration of a substance (e.g., a compound or a drug) that is required for 50% cell survival in a cell viability assay in vitro.

Compound	EC90 [1] [µM]	log reduction at 10 µM [1]	CC50 [2] [µM]
COC(=O)c1ccc(-c2cccc(-c3csc(NC(=O)c4cccnc4SC)n3)c2)cc1 [Compound 23, Methyl 3′-(2-(2-(methylthio)nicotinamido)thiazol-4-yl)-[1,1′-biphenyl]-4-carboxylate]	0.822	8.69	> 40
COc1cc(Nc2cccc(-c3csc(NC(=O)c4cccnc4SC)n3)c2)ccc1C#N [Compound 46, N-(4-(3-((4-yano-3-methoxyphenyl)amino)phenyl)thiazol-2-yl)-2-(methylthio)nicotinamide]	0.34	5.06	> 40
CSc1ncccc1C(=O)Nc1nc(-c2cccc(N3CCNCC3)c2)cs1 [Compound 31, 2-(Methylthio)-N-(4-(3-(piperazin-1-yl)phenyl)thiazol-2-yl)nicotinamide]	9.1	8.69	> 30
COc1ncc(-c2cccc(-c3csc(NC(=O)c4cccnc4SC)n3)c2)cn1 [Compound 28, N-(4-(3-(2-Methoxypyrimidin-5-yl)phenyl)thiazol-2-yl)-2-(methylthio)nicotinamide]	–	2.52	> 40
CSc1ncccc1C(=O)Nc1nc(-c2cncc(-c3ccc(C#N)cc3)c2)cs1 [Compound 12, N-(4-(5-(4-Cyanophenyl)pyridin-3-yl)thiazol-2-yl)-2-(methylthio)nicotinamide]	–	< 1	> 40
CC(C)(C)c1ccc(C(=O)Nc2nc(-c3cccc(N4CCNCC4)c3)cs2)cc1 [Compound 30, 4-(Tert-Butyl)-N-(4-(3-(piperazin-1-yl)phenyl)thiazol-2-yl)benzamide]	–	5.57	4.1
N#Cc1ccc(-c2cccc(-c3csc(NC(=O)c4cccnc4SC(F)F)n3)c2)cc1 [Compound 6, N-(4-(4′-Cyano-[1,1′-biphenyl]-3-yl)thiazol-2-yl)-2-((difluoromethyl)thio)nicotinamide]	–	7.6	> 30
CSc1ncccc1C(=O)Nc1nc(-c2cccc(-c3cccc(C#N)c3)c2)cs1 [Compound 5, N-(4-(3′-Cyano-[1,1′-biphenyl]-3-yl)thiazol-2-yl)-2-(methylthio)nicotinamide]	0.098	5.25	> 40
COc1ccc(-c2ccc(C#N)cc2)cc1-c1csc(NC(=O)c2cccnc2SC)n1 [Compound 18, N-(4-(4′-Cyano-4-methoxy-[1,1′-biphenyl]-3-yl)thiazol-2-yl)-2-(methylthio)nicotinamide]	–	1.73	> 40
CC(C)(C)c1ccc(C(=O)Nc2nc(-c3cccc(-c4ccc(C#N)cc4)c3)cs2)cc1 [Compound 9, 4-(Tert-butyl)-N-(4-(4′-cyano-[1,1′-biphenyl]-3-yl)thiazol-2-yl)benzamide]	0.28	4.68	> 40
CC(C)(C)c1cnc(C(=O)Nc2nc(-c3cccc(-c4ccc(C#N)cc4)c3)cs2)nc1 [Compound 8, 5-(Tert-butyl)-N-(4-(4′-cyano-[1,1′-biphenyl]-3-yl)thiazol-2-yl)pyrimidine-2-carboxamide]	–	< 1	> 40
CSc1ncccc1C(=O)Nc1nc(-c2cccc(-c3ccc(C(N)=O)cc3)c2)cs1 [Compound 25, N-(4-(4′-Carbamoyl-[1,1′-biphenyl]-3-yl)thiazol-2-yl)-2-(methylthio)nicotinamide]	0.21	2.43	17.9
CSc1ncccc1C(=O)Nc1nc(-c2cccc(-c3ccccn3)c2)cs1 [Compound 2, 2-(Methylthio)-N-(4-(3-(pyridin-2-yl)phenyl)thiazol-2-yl)nicotinamide]	0.7	3.97	> 30
COC(=O)c1cc(-c2ccc(C#N)cc2)cc(-c2csc(NC(=O)c3cccnc3SC)n2)c1 [Compound 20, Methyl 4′-cyano-5-(2-(2-(methylthio)nicotinamido)thiazol-4-yl)-[1,1′-biphenyl]-3-carboxylate]	–	3.23	17.6
CSc1ncccc1C(=O)Nc1nc(-c2cccc(-c3ccc(C#N)c(O)c3)c2)cs1 [Compound 22, N-(4-(4′-Cyano-3′-hydroxy-[1,1′-biphenyl]-3-yl)thiazol-2-yl)-2-(methylthio)nicotinamide]	1.6	8.5	> 30
CSc1ncccc1C(=O)Nc1nc(-c2cccc(Nc3ccccc3C#N)c2)cs1 [Compound 39, N-(4-(3-((2-Cyanophenyl)amino)phenyl)thiazol-2-yl)-2-(methylthio)nicotinamide]	0.5	5.23	> 40
N#Cc1ccc(-c2cccc(-c3csc(NC(=O)c4cccnc4C(F)(F)F)n3)c2)cc1 [Compound 7, N-(4-(4′-Cyano-[1,1′-biphenyl]-3-yl)thiazol-2-yl)-2-(trifluoromethyl)nicotinamide]	–	5.09	8.07
CSc1ncccc1C(=O)Nc1nc(-c2cccc(N3CCN(S(C)(=O)=O)CC3)c2)cs1 [Compound 33, N-(4-(3-(4-(methylsulfonyl)piperazin-1-yl)phenyl)thiazol-2-yl)-2-(methylthio)nicotinamide]	–	2.04	> 40
CSc1ncccc1C(=O)Nc1nc(-c2cccc(-c3ccncc3)c2)cs1 [Compound 3, 2-(Methylthio)-N-(4-(3-(pyridin-4-yl)phenyl)thiazol-2-yl)nicotinamide]	–	< 1	> 40
CSc1ncccc1C(=O)Nc1nc(-c2cccc(N3CCOCC3)c2)cs1 [Compound 34, 2-(Methylthio)-N-(4-(3-morpholinophenyl)thiazol-2-yl)nicotinamide]	–	1.88	> 40

From patent publication US20200399264A1, “4-SUBSTITUTED-2-THIAZOLE AMIDES AS ANTIVIRAL AGENTS” (Southern Research Institute, priority 2019, published 2020)
